Assay results published in patent US11534412B2, “Application of totarol and pharmaceutical composition containing totarol” (Emergopharm SP. Z O.O. SP.K., priority 2017, dated 2022).

Test system: Lactobacillus gasseri - clinical strain
Assay: Determination of the MIC value of totarol, broth dilution in 96-well plates with OD and quantitative culture
Assay type: cell-based
Settings: for OD, average of 3 measurements / OD: 620 nm
Method: Test of antibacterial activity of totarol using DMI (dimethylisosorbide) as a solvent.
A suspension of 0.5 McF in physiological saline (suspension density 10^8 cfu/ml) was prepared from a 24-hour culture of a standard strain. 1 ml of the suspension was collected to 9 ml of a TSB broth ([…]). Suspensions with a dilution of 10^−6 were prepared in the described way. A suspension with a cell density of 10^5 cfu/ml was selected for further investigations. For each strain, 2 96-well plates were prepared: the first one was intended for the OD measurement, the second one—for quantitative culture on solid media. • A/ to wells B1-D1, B2-D2 and B-D 4-11, 100 µl of the broth were added; • B/ to wells B3-D3, 200 µl of the broth were added; • C/ to wells B1-D1, 1 µl of stock I was added; • D/ to wells B2-D2, 1 µl of stock II was added; • E/ to wells B3-D3, 2 µl of stock III were added. Using a multichannel pipette, 100 µl of the sample were collected from each of the B3-D3 wells and placed in wells B4-D4 (mixing by sucking the content in and letting it out for 5 times). The pipette tips were replaced and 100 µl of the content were collected from of the B4-D4 wells, and placed in wells B5-D5, mixing as previously. These operations were repeated through the wells B11-D11. The content in the B11-D11 wells was mixed, and 100 µl of the fluid were collected and discarded. This way, a series of dilutions of totarol samples in DMI in the range of 0.32% to 0.0004% was obtained. Then, 100 µl of a corresponding bacterial culture were added to the wells B, C, D 1-11. In consequence, a change in the final concentration range occurred, to 0.16%-0.0002%. Control Preparation: • Negative control: 100 µl of the broth+1 pl DMI were added to the Al well. • Positive control (I): 100 µl of the broth with the bacterial culture were added to the wells E1-G1. • Diluent positive control (II): 100 µl of the broth with the bacterial culture+1 pl DMI were added to the wells E2-G2. The OD value in the individual wells was read at the wavelength of 620 nm (read time 0). From the second 96-well plate, a culture was inoculated by a quantitative method from every dilution onto a well with a proper solid medium, and incubated for 24 h at 37° C. under aerobic or anaerobic conditions, depending on the strain. The plates were incubated under aerobic conditions or in an atmosphere of an elevated CO2 concentration (for the strains requiring it) in an incubator at 37° C. The OD was read after 8 h, 16 h, and 24 h, respectively. Before every OD measurement, the contents of the wells were mixed delicately. In parallel to the OD readout, cultures we inoculated from the second 96-well plate, from every dilution, into plates with a proper solid medium, and incubated for 24 h at 37° C., under aerobic or anaerobic conditions. For the analysis of the experimental results, an average value of the OD measurement obtained from three repetitions in the individual times (0, 8, 16, and 24 h) for the individual microbes (Gardnerella vaginalis, Streptococcus agalactiae, Enterococcus faecalis, Lactobacillus gasseri/plantarum) was taken. Additionally, the number of bacteria grown on solid media was taken into account. The results of the tests confirm the specific, concentration-dependent selectiveness, and the high antibacterial effectiveness of totarol against the pathogenic microorganisms: Gardnerella vaginalis, Streptococcus agalactiae, Enterococcus faecalis at low MIC values safe for bacteria of the Lactobacillus genus.

Question: What does the source list for CC(C)c1c(O)ccc2c1CC[C@H]1C(C)(C)CCC[C@]21C [Totarol, totarol]?
Answer: MIC value (L. gasseri): 0.04%; Inoculation cfu/ml (totarol 0.0002%, 0 h): 3.1 × 10^5 cfu/ml; OD, average of 3 measurements (totarol 0.0002%, 0 h): 0.299; Inoculation cfu/ml (totarol 0.0002%, 8 h): 2.1 × 10^5 cfu/ml; OD, average of 3 measurements (totarol 0.0002%, 8 h): 0.302; Inoculation cfu/ml (totarol 0.0002%, 16 h): 5.9 × 10^6 cfu/ml; OD, average of 3 measurements (totarol 0.0002%, 16 h): 0.897; Inoculation cfu/ml (totarol 0.0002%, 24 h): 2.9 × 10^7 cfu/ml; OD (totarol 0.0002%, 24 h): 1.492; Inoculation cfu/ml (totarol 0.0004%, 0 h): 5.1 × 10^5 cfu/ml; OD, average of 3 measurements (totarol 0.0004%, 0 h): 0.296; Inoculation cfu/ml (totarol 0.0004%, 8 h): 2.1 × 10^5 cfu/ml; OD, average of 3 measurements (totarol 0.0004%, 8 h): 0.306; Inoculation cfu/ml (totarol 0.0004%, 16 h): 3.9 × 10^6 cfu/ml; OD, average of 3 measurements (totarol 0.0004%, 16 h): 0.915; Inoculation cfu/ml (totarol 0.0004%, 24 h): 3.2 × 10^7 cfu/ml; OD (totarol 0.0004%, 24 h): 1.484; Inoculation cfu/ml (totarol 0.0007%, 0 h): 1.7 × 10^5 cfu/ml; OD, average of 3 measurements (totarol 0.0007%, 0 h): 0.289; Inoculation cfu/ml (totarol 0.0007%, 8 h): 1.9 × 10^5 cfu/ml; OD, average of 3 measurements (totarol 0.0007%, 8 h): 0.299; Inoculation cfu/ml (totarol 0.0007%, 16 h): 3.6 × 10^6 cfu/ml; OD, average of 3 measurements (totarol 0.0007%, 16 h): 0.879; Inoculation cfu/ml (totarol 0.0007%, 24 h): 3 × 10^7 cfu/ml; OD (totarol 0.0007%, 24 h): 1.458; Inoculation cfu/ml (totarol 0.0013%, 0 h): 3.8 × 10^5 cfu/ml; OD, average of 3 measurements (totarol 0.0013%, 0 h): 0.298; Inoculation cfu/ml (totarol 0.0013%, 8 h): 1.8 × 10^5 cfu/ml; OD, average of 3 measurements (totarol 0.0013%, 8 h): 0.301; Inoculation cfu/ml (totarol 0.0013%, 16 h): 4.1 × 10^6 cfu/ml; OD, average of 3 measurements (totarol 0.0013%, 16 h): 0.879; Inoculation cfu/ml (totarol 0.0013%, 24 h): 2.1 × 10^7 cfu/ml; OD (totarol 0.0013%, 24 h): 1.457; Inoculation cfu/ml (totarol 0.0025%, 0 h): 4.5 × 10^5 cfu/ml; OD, average of 3 measurements (totarol 0.0025%, 0 h): 0.285; Inoculation cfu/ml (totarol 0.0025%, 8 h): 1.5 × 10^5 cfu/ml; OD, average of 3 measurements (totarol 0.0025%, 8 h): 0.302; Inoculation cfu/ml (totarol 0.0025%, 16 h): 2.3 × 10^6 cfu/ml; OD, average of 3 measurements (totarol 0.0025%, 16 h): 0.880; Inoculation cfu/ml (totarol 0.0025%, 24 h): 2.3 × 10^7 cfu/ml; OD (totarol 0.0025%, 24 h): 1.459; Inoculation cfu/ml (totarol 0.005%, 0 h): 1.2 × 10^5 cfu/ml; OD, average of 3 measurements (totarol 0.005%, 0 h): 0.292; Inoculation cfu/ml (totarol 0.005%, 8 h): 2 × 10^5 cfu/ml; OD, average of 3 measurements (totarol 0.005%, 8 h): 0.300; Inoculation cfu/ml (totarol 0.005%, 16 h): 9.1 × 10^6 cfu/ml; OD, average of 3 measurements (totarol 0.005%, 16 h): 0.843; Inoculation cfu/ml (totarol 0.005%, 24 h): 2.1 × 10^7 cfu/ml; OD (totarol 0.005%, 24 h): 1.387; Inoculation cfu/ml (totarol 0.01%, 0 h): 3.9 × 10^5 cfu/ml; OD, average of 3 measurements (totarol 0.01%, 0 h): 0.301; Inoculation cfu/ml (totarol 0.01%, 8 h): 7 × 10^4 cfu/ml; OD, average of 3 measurements (totarol 0.01%, 8 h): 0.297; Inoculation cfu/ml (totarol 0.01%, 16 h): 5.3 × 10^6 cfu/ml; OD, average of 3 measurements (totarol 0.01%, 16 h): 0.799; Inoculation cfu/ml (totarol 0.01%, 24 h): 1.3 × 10^7 cfu/ml; OD (totarol 0.01%, 24 h): 1.301; Inoculation cfu/ml (totarol 0.02%, 0 h): 1.4 × 10^5 cfu/ml; OD, average of 3 measurements (totarol 0.02%, 0 h): 0.305; Inoculation cfu/ml (totarol 0.02%, 8 h): 1.4 × 10^5 cfu/ml; OD, average of 3 measurements (totarol 0.02%, 8 h): 0.299; Inoculation cfu/ml (totarol 0.02%, 16 h): 2.1 × 10^5 cfu/ml; OD, average of 3 measurements (totarol 0.02%, 16 h): 0.753; Inoculation cfu/ml (totarol 0.02%, 24 h): 1 × 10^5 cfu/ml; OD (totarol 0.02%, 24 h): 1.208; Inoculation cfu/ml (totarol 0.04%, 0 h): 4.6 × 10^5 cfu/ml; OD, average of 3 measurements (totarol 0.04%, 0 h): 0.352; Inoculation cfu/ml (totarol 0.04%, 8 h): 6 × 10^4 cfu/ml; OD, average of 3 measurements (totarol 0.04%, 8 h): 0.335; Inoculation cfu/ml (totarol 0.04%, 16 h): 4.5 × 10^3 cfu/ml; OD, average of 3 measurements (totarol 0.04%, 16 h): 0.342; Inoculation cfu/ml (totarol 0.04%, 24 h): 5 × 10^3 cfu/ml; OD (totarol 0.04%, 24 h): 0.349; Inoculation cfu/ml (totarol 0.08%, 0 h): 2.9 × 10^5 cfu/ml; OD, average of 3 measurements (totarol 0.08%, 0 h): 0.526; Inoculation cfu/ml (totarol 0.08%, 8 h): 1 × 10^4 cfu/ml; OD, average of 3 measurements (totarol 0.08%, 8 h): 0.409; Inoculation cfu/ml (totarol 0.08%, 16 h): 1.9 × 10^2 cfu/ml; OD, average of 3 measurements (totarol 0.08%, 16 h): 0.463; Inoculation cfu/ml (totarol 0.08%, 24 h): 1.2 × 10^2 cfu/ml; OD (totarol 0.08%, 24 h): 0.472; Inoculation cfu/ml (totarol 0.16%, 0 h): 6.5 × 10^5 cfu/ml; OD, average of 3 measurements (totarol 0.16%, 0 h): 0.427; Inoculation cfu/ml (totarol 0.16%, 8 h): 2.5 × 10^4 cfu/ml; OD, average of 3 measurements (totarol 0.16%, 8 h): 0.411; Inoculation cfu/ml (totarol 0.16%, 16 h): 3.1 × 10^1 cfu/ml; OD, average of 3 measurements (totarol 0.16%, 16 h): 0.409; Inoculation cfu/ml (totarol 0.16%, 24 h): 1 × 10^1 cfu/ml; OD (totarol 0.16%, 24 h): 0.406
